Assay results from US6737383B1, “Herbicidal oxadiazolidines” (priority 1999, dated 2004).

How the values were obtained:
[1] = system: wild mustard; experiment: Test E wild mustard; format: in vivo, Sinapis arvensis; conditions: Postemergence
How it was run: (§1)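 Greenhouse-grown plants are treated (postemergence: 1- to 4-leaf stage, sandy loam/potting mix 60:40), then evaluated visually versus untreated controls some 21 to 28 days later.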

[2] = system: Italian ryegrass; experiment: Test E Italian ryegrass; format: in vivo, Lolium multiflorum; conditions: Postemergence
How it was run: as §1

[3] = system: rape; experiment: Test E rape; format: in vivo, Brassica napus; conditions: Postemergence
How it was run: as §1

[4] = system: spring barley; experiment: Test E spring barley; format: in vivo, Hordeum vulgare; conditions: Preemergence
[5] = system: sunflower; experiment: Test E sunflower; format: in vivo, Helianthus annuus; conditions: Preemergence
[6] = system: wild oat; experiment: Test E wild oat; format: in vivo, Avena fatua; conditions: Postemergence
How it was run: as §1

[7] = system: wild mustard; experiment: Test E wild mustard; format: in vivo, Sinapis arvensis; conditions: Preemergence
[8] = system: black nightshade; experiment: Test E black nightshade; format: in vivo, Solanum nigra; conditions: Preemergence
[9] = system: spring barley; experiment: Test E spring barley; format: in vivo, Hordeum vulgare; conditions: Postemergence
How it was run: as §1

[10] = system: kochia; experiment: Test E kochia; format: in vivo, Kochia scoparia; conditions: Postemergence
How it was run: as §1

[11] = system: redroot pigweed; experiment: Test E redroot pigweed; format: in vivo, Amaranthus retroflexus; conditions: Preemergence
[12] = system: rape; experiment: Test E rape; format: in vivo, Brassica napus; conditions: Preemergence
[13] = system: spring wheat; experiment: Test E spring wheat; format: in vivo, Triticum aestivum; conditions: Postemergence
How it was run: as §1

[14] = system: field violet; experiment: Test E field violet; format: in vivo, Viola arvensis; conditions: Preemergence
[15] = system: field violet; experiment: Test E field violet; format: in vivo, Viola arvensis; conditions: Postemergence
How it was run: as §1

[16] = system: galium; experiment: Test E galium; format: in vivo, Galium aparine; conditions: Postemergence
How it was run: as §1

[17] = system: lambsquarters; experiment: Test E lambsquarters; format: in vivo, Chenopodium album; conditions: Preemergence
[18] = system: kochia; experiment: Test E kochia; format: in vivo, Kochia scoparia; conditions: Preemergence
[19] = system: galium; experiment: Test E galium; format: in vivo, Galium aparine; conditions: Preemergence
[20] = system: Russian thistle; experiment: Test E Russian thistle; format: in vivo, Salsola kali; conditions: Preemergence
[21] = system: windgrass; experiment: Test E windgrass; format: in vivo, Apera spica-venti; conditions: Preemergence
[22] = system: deadnettle; experiment: Test E deadnettle; format: in vivo, Lamium amplexicaule; conditions: Preemergence
[23] = system: downy brome; experiment: Test E downy brome; format: in vivo, Bromus tectorum; conditions: Preemergence
[24] = system: sugar beet; experiment: Test E sugar beet; format: in vivo, Beta vulgaris; conditions: Postemergence
How it was run: as §1

[25] = system: littleseed canarygrass; experiment: Test E littleseed canarygrass; format: in vivo, Phalaris minor; conditions: Preemergence
[26] = system: jointed goatgrass; experiment: Test E jointed goatgrass; format: in vivo, Aegilops cylindrica; conditions: Preemergence
[27] = Rate 250 g/ha, 0 to 100 scale (0 no effect, 100 complete control)
[28] = Rate 62 g/ha, 0 to 100 scale, 0 no effect, 100 complete control
[29] = Rate 125 g/ha, 0 to 100 scale (0 no effect, 100 complete control)

## C=CCn1c(=O)on(C(=O)N(c2ccccc2)C(C)C)c1=O [Compound 93]
[1]; Rate 62 g/ha, 0 to 100 scale
  Plant response rating, Wild mustard: 0
[1]; Rate 125 g/ha, 0 to 100 scale
  Plant response rating, Wild mustard: 0
[1]; [27]
  Plant response rating, Wild mustard: 10
[2]; Rate 62 g/ha, 0 to 100 scale
  Plant response rating, I. Ryegrass: 0
[2]; Rate 125 g/ha, 0 to 100 scale
  Plant response rating, I. Ryegrass: 0
[2]; [27]
  Plant response rating, I. Ryegrass: 0
[3]; Rate 62 g/ha, 0 to 100 scale
  Plant response rating, Rape: 0
[3]; Rate 125 g/ha, 0 to 100 scale
  Plant response rating, Rape: 0
[3]; [27]
  Plant response rating, Rape: 0
[4]; [28]
  Plant response rating, Spring Barley: 5
[4]; [29]
  Plant response rating, Spring Barley: 10
[4]; Rate 250 g/ha, 0 to 100 scale
  Plant response rating, Spring Barley: 60
[5]; [28]
  Plant response rating, Sunflower: 10
[5]; [29]
  Plant response rating, Sunflower: 5
[5]; Rate 250 g/ha, 0 to 100 scale
  Plant response rating, Sunflower: 20
[6]; Rate 62 g/ha, 0 to 100 scale
  Plant response rating, Wild oat: 0
[6]; Rate 125 g/ha, 0 to 100 scale
  Plant response rating, Wild oat: 0
[6]; [27]
  Plant response rating, Wild oat: 0
[7]; [28]
  Plant response rating, Wild mustard: 30
[7]; [29]
  Plant response rating, Wild mustard: 65
[7]; Rate 250 g/ha, 0 to 100 scale
  Plant response rating, Wild mustard: 80
[8]; [28]
  Plant response rating, Blk nightshade: 60
[8]; [29]
  Plant response rating, Blk nightshade: 65
[8]; Rate 250 g/ha, 0 to 100 scale
  Plant response rating, Blk nightshade: 80
[9]; Rate 62 g/ha, 0 to 100 scale
  Plant response rating, Spring Barley: 0
[9]; Rate 125 g/ha, 0 to 100 scale
  Plant response rating, Spring Barley: 0
[9]; [27]
  Plant response rating, Spring Barley: 0
[10]; Rate 62 g/ha, 0 to 100 scale
  Plant response rating, Kochia: 0
[10]; Rate 125 g/ha, 0 to 100 scale
  Plant response rating, Kochia: 0
[10]; [27]
  Plant response rating, Kochia: 0
[11]; [28]
  Plant response rating, Redroot pigweed: 100
[11]; [29]
  Plant response rating, Redroot pigweed: 100
[11]; Rate 250 g/ha, 0 to 100 scale
  Plant response rating, Redroot pigweed: 90
[12]; [28]
  Plant response rating, Rape: 0
[12]; [29]
  Plant response rating, Rape: 0
[12]; Rate 250 g/ha, 0 to 100 scale
  Plant response rating, Rape: 10
[13]; Rate 62 g/ha, 0 to 100 scale
  Plant response rating, Spring Wheat: 0
[13]; Rate 125 g/ha, 0 to 100 scale
  Plant response rating, Spring Wheat: 0
[13]; [27]
  Plant response rating, Spring Wheat: 0
[14]; [28]
  Plant response rating, Field violet: 0
[14]; [29]
  Plant response rating, Field violet: 10
[14]; Rate 250 g/ha, 0 to 100 scale
  Plant response rating, Field violet: 30
[15]; Rate 62 g/ha, 0 to 100 scale
  Plant response rating, Field violet: 0
[15]; Rate 125 g/ha, 0 to 100 scale
  Plant response rating, Field violet: 0
[15]; [27]
  Plant response rating, Field violet: 0
[16]; Rate 62 g/ha, 0 to 100 scale
  Plant response rating, Galium: 0
[16]; Rate 125 g/ha, 0 to 100 scale
  Plant response rating, Galium: 0
[16]; [27]
  Plant response rating, Galium: 0
[17]; [28]
  Plant response rating, Lambsquarters: 100
[17]; [29]
  Plant response rating, Lambsquarters: 100
[17]; Rate 250 g/ha, 0 to 100 scale
  Plant response rating, Lambsquarters: 100
[18]; [28]
  Plant response rating, Kochia: 0
[18]; [29]
  Plant response rating, Kochia: 0
[18]; Rate 250 g/ha, 0 to 100 scale
  Plant response rating, Kochia: 20
[19]; [28]
  Plant response rating, Galium: 10
[19]; [29]
  Plant response rating, Galium: 15
[19]; Rate 250 g/ha, 0 to 100 scale
  Plant response rating, Galium: 100
[20]; [28]
  Plant response rating, Russian thistle: 0
[20]; [29]
  Plant response rating, Russian thistle: 0
[20]; Rate 250 g/ha, 0 to 100 scale
  Plant response rating, Russian thistle: 0
[21]; [28]
  Plant response rating, Windgrass: 100
[21]; [29]
  Plant response rating, Windgrass: 100
[22]; [28]
  Plant response rating, Deadnettle: 10
[22]; [29]
  Plant response rating, Deadnettle: 10
[22]; Rate 250 g/ha, 0 to 100 scale
  Plant response rating, Deadnettle: 85
[23]; [28]
  Plant response rating, Downy brome: 40
[23]; [29]
  Plant response rating, Downy brome: 60
[23]; Rate 250 g/ha, 0 to 100 scale
  Plant response rating, Downy brome: 20
[24]; Rate 62 g/ha, 0 to 100 scale
  Plant response rating, Sugar beet: 0
[24]; Rate 125 g/ha, 0 to 100 scale
  Plant response rating, Sugar beet: 0
[24]; [27]
  Plant response rating, Sugar beet: 0
[25]; [28]
  Plant response rating, LS canarygrass: 40
[25]; [29]
  Plant response rating, LS canarygrass: 80
[25]; Rate 250 g/ha, 0 to 100 scale
  Plant response rating, LS canarygrass: 60
[26]; [28]
  Plant response rating, Jointed goatgra: 15
[26]; [29]
  Plant response rating, Jointed goatgra: 70
[26]; Rate 250 g/ha, 0 to 100 scale
  Plant response rating, Jointed goatgra: 60
